The source of these data is US12655139B2, “Isoxazolidines as RIPK1 inhibitors and use thereof” (SANOFI, priority 2020, dated 2026).

Series [1] has as its target T1, hRIPK1 (aa 1-375) fusion protein (Homo sapiens, UniProt Q13546).
T1 construct: hRIPK1 (aa 1-375) fusion protein
T1 sequence (Q13546 1-375): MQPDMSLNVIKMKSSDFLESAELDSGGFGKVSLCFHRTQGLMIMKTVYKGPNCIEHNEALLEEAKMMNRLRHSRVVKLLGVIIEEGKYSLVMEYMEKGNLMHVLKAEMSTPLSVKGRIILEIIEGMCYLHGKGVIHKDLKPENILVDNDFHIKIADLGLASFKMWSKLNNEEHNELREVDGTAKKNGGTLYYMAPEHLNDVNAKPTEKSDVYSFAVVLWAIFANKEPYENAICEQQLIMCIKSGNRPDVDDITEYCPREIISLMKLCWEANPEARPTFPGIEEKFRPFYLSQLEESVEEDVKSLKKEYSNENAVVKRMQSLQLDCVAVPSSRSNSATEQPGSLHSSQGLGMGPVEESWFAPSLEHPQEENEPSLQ
As to the kind of experiment: ADP-Glo kinase assay, RIPK1 autophosphorylation. The class given is biochemical. To be noted: Comparator table 5.

A short description of series [2]: Pharmacokinetic studies in mice, oral application. The class given is in vivo. The note with it: male, C57BL/6, brain / plasma, mouse. On the procedure: Pharmacokinetic Studies in Mice
A suspension of the respective test articles (30 mg/kg, 10 ml/kg, 3 mg/ml) was prepared in 0.6% methyl cellulose (MC) by thorough mixing of the fine solid with the freshly made and filtered MC solution and administered to 24 non-fasted male C57BL/6 mice (20-25 g) by gavage. Terminal blood sampling (with the addition of K2-EDTA) was performed at 0.25, 0.5, 1, 2, 4, 6, 8 and 24 h post admin. Plasma was generated by centrifugation and deep-frozen (−20° C.). In addition, after 2 h, brain and liver were removed from the respective 3 mice. Additional plasma was collected from terminal blood. The organs were pooled, homogenized and the homogenate extracted with an acetonitrile-water mixture prior to measurement by HPLC-MS/MS. The brain/plasma ratio was determined at 2 h by dividing the brain concentration at 2 h through the respective value for the plasma concentration at 2 h.
Ex. 004: 21 mice were used in the study, without the 6 h sampling time. The same study design was applied.
A suspension of the respective test articles (30 mg/kg, 10 ml/kg, 3 mg/ml) was prepared in freshly prepared and filtered 0.6% methyl cellulose solution by wet-milling using Retsch MM 301 mixer mill (10 min, room temperature) and administered to 6 non-fasted male C57BL/6 mice (20-25 g) by gavage. Serial sampling of blood (with the addition of K3-EDTA) was performed at 0.25, 0.5, 1, 2, 4, 6, 8 and 24 h post admin. The blood samples were diluted (10 μl blood were added to a mixture of 90 μl 25% acetonitrile in water) and deep-frozen (−20° C.). After 2 h, 3 of the 6 animals were sacrificed and brain and liver taken off. Additional plasma was prepared from terminal blood. The organs were homogenized and the homogenate extracted with an acetonitrile-water mixture prior to measurement by HPLC-MS/MS. The brain/plasma ratio was determined at 2 h by dividing the brain concentration at 2 h through the respective value for the plasma concentration at 2 h.

Series [3] has as its system U937 cells. As to the kind of experiment: Cellular assay in U937 cells on cell death (necroptosis), TNFα/zVAD.fmk. The series is classed as cell-based. The note with it: Homo sapiens, U-937, Comparator table 5; read-out: U937 IC50 (uM) Mean. An outline of the steps: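 U937 cells with 100 ng/ml TNFα plus 50 μM zVAD.fmk (pre-addition suspension levels) received 10 compound concentrations (10 μM–0.26 nM or 1 μM–0.07 nM) for 18–24 h at 37 °C. Live cells were read by MTS formazan absorbance at 490 nm after 4 h. % inhibition is relative to the maximal value without TNFα/zVAD.fmk.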

The conditions of series [4]: monkeys, doses ≥100 mg/kg; cited from earlier work.
The subject of series [5] is U937 cells. To be noted: Comparator table 5; data from P.A. Harris et al. J Med Chem 2019, 62, 5096; cited from earlier work.
Series [6] is described as follows: Pharmacokinetic studies in mice, intravenous application with non-serial sampling. The series is classed as in vivo. The protocol:
Intravenous Application with Non-Serial Sampling Compound K
A solution of the respective test articles (3 mg/kg, 5 mL/kg, 0.6 mg/mL) was prepared by dissolving the solids in 7.5% N-Methyl pyrrolidon followed by addition of 60% PEG200 and 32.5% water for injection. Intravenous administration to 24 (3×8, groups per time) non-fasted male C57BL/6 mice (20-25 g) followed immediately after preparation. Terminal blood sampling (with the addition of K2-EDTA) was performed at 0.083, 0.25, 0.5, 1, 2, 4, 8 and 24 h post admin. Plasma was generated by centrifugation and deep-frozen (−20° C.). In addition, brain and liver were removed from all animals. The organs were pooled per time group, homogenized and the homogenate extracted with an acetonitrile-water mixture prior to measurement by HPLC-MS/MS. The brain/plasma ratio was determined by dividing the brain concentration through the respective value for the plasma concentration at the same sampling time.

Series [7] is described as follows: Intravenous application to cynomolgus monkeys, side effects and histopathology. The class given is in vivo, cynomolgus monkey. The note with it: 1 mg/kg, i.v.
[8] abbreviates: 2 h, oral 30 mg/kg, read-out: Mouse PK brain/blood ratio.

Where two headings read alike, the source gives them in different places.

The term IC50 denotes the concentration that gives 50% inhibition. Turning to `N#Cc1cc(N2CCC(C(=O)N3OCC[C@H]3c3cc(F)cc(F)c3)CC2)ncn1` [A, reference compound], the IC50 in series [1] worked out at 12 nM; with U937 cells [3], 0.003 µM. For the same compound, the Kp at 2 h in series [2] (setting [8]) turned out to be 0.82.

For the compound `NC(=O)c1cc(N2CCC(C(=O)N3OCC[C@H]3c3cc(F)cc(F)c3)CC2)ncn1` [D, reference compound], the IC50 in series [1] worked out at 10 nM; in the series on U937 cells [3], 0.004 µM. For the same compound, the Kp at 2 h in series [2] (setting [8]) came to 1.1.

On to `N#Cc1cc(N2CCC(C(=O)N3N=CC[C@H]3c3cc(F)cc(F)c3)CC2)ncn1` [G, reference compound], for which the Kp at 2 h in series [2] (setting [8]) was found to be 1.5. In addition, in the series with U937 cells [3], the IC50 was found to be 0.002 µM.

In the case of `CN1C(=O)[C@@H](NC(=O)c2nnc(Cc3ccccc3)[nH]2)COc2ccccc21` [GSK2982772], the central side effects entry in series [4] was “irregular gait and uncoordinated movement”.

`CC(C)(C)C(=O)N1N=CC[C@H]1c1cc(F)cc(F)c1` [H]: the IC50 in the series on U937 cells [5] is 0.006 µM.

Turning to `COc1cc(N2CCC(C(=O)N3OCC[C@H]3c3cc(F)cc(F)c3)CC2)ncn1` [K, reference compound], the IC50 in series [1] is 18 nM; in the series on U937 cells [3], 0.01 µM. The “Mouse PK brain/blood ratio” value in series [6] (15 min, i.v. 3 mg/kg) is listed as 2.1 (15 min i.v. 3 mg/kg).

Take `COc1cc(N2CCC(C(=O)N3OCC[C@H]3c3cc(F)cc(F)c3)CC2)ncn1` [comparator compound K, [1-(6-Methoxypyrimidin-4-yl)-4-piperidyl]-[(3S)-3-(3,5-difluorophenyl)isoxazolidin-2-yl]methanone]: in series [2] (2 h after oral application of 30 mg/kg, read-out: brain/plasma ratio), the Kp at 2 h amounted to 1.6. Also, the Kp at 15 min in series [6] (male, C57BL/6, brain / plasma, iv, mouse, 15 min after i.v. application of 3 mg/kg, read-out: brain/blood ratio) was 2.1. The concentration at 15 min in series [6] (male, C57BL/6, brain, iv, mouse, 15 min after i.v. application of 3 mg/kg, read-out: brain levels) worked out at 1580 ng/mL. In series [7], the histopathological examination result was “bilateral and symmetrical lesions of brain necrosis”; the side effects result is listed as “severe side effects”.
